[ ]: non-standard residue; d: D form. The star is where a group is joined. X1 = CC(C)CCC[C@@H](C)[C@H]1CC[C@H]2[C@@H]3CC=C4C[C@@H](OC(=O)C*)CC[C@]4(C)[C@H]3CC[C@]12C; PEG4 = NCCOCCOCCOCCOCCC(=O)O
Key:
proteinase K [1] = target: T1, proteinase K (Parengyodontium album, UniProt P06873); details: isolated enzyme proteinase k, pH 7.5
proteinase K [2] = target: T1, proteinase K; assay: in vitro; details: isolated enzyme proteinase k, pH 7.5
[3] = in vivo

T1 sequence (P06873 106-384): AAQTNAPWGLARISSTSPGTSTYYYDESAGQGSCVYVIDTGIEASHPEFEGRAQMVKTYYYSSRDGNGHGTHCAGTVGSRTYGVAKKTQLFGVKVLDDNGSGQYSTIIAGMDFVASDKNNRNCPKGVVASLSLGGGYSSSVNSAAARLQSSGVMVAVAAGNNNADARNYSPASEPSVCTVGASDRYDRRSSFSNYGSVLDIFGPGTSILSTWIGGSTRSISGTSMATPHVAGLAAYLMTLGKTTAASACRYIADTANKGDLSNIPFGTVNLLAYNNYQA

| Substance | half-life of the intact peptide fraction (proteinase K [1]) | half-life (proteinase K [2]) | biodistribution (lung, blood, CNS) [3] |
| --- | --- | --- | --- |
| Ac-VALDPIDISIVLNKIKSDLEESKEWIRRSNKILDSI-GSGSG-dPEG4-C-(PEG4-Chol)2-NH2 [VIKI-dPEG4-bisChol] | 3 min |  |  |
| Ac-VALDPIDISIVLNKIKSDLEESKEWIRRSNKILDSI-GSGSG-dPEG4-C-(PEG4-Toco)2-NH2 [VIKI-dPEG4-bisToco] | 5 min |  |  |
| Ac-VALDPIDISIVLNKIKSDLEESKEWIRRSNKILDSIGSGSG[PEG4]C(X1)-NH2 [VIKI-dPEG4-Chol] |  | 10 min | reached high levels in the lung |
